Literature values in patent US20190223486A1, “CATECHIN ABSORPTION ENHANCER FOR ENHANCING CATECHIN ABSORPTION IN SMALL INTESTINAL EPITHELIAL CELLS” (AMOREPACIFIC CORPORATION, priority 2016, published 2019).

Conditions: in vivo, po

catechin
share of a catechin intake absorbed by the intestines: less than 2%
